Assay results as given in patent US9587220B2, “Method for inducing cardiac differentiation of pluripotent stem cell” (Kyoto University, priority 2012, dated 2017).
Entries after “also recorded” stand apart in the source; their conditions may differ.

How the values were obtained:
[1] = tested on: TCF promoter activity in HEK293 cells; test: TOPflash TCF reporter assay in HEK293 cells; type: cell-based, human; settings: 10 μM
Procedure: For the TCF reporter assay, IMR90-1 hiPSCs were cultured in the serum-containing differentiation culture, as described above, and transfected with TOPFlash plasmid (Millipore 21-170) and pRL-SV40 plasmid (Renilla luciferase transfection control, Promega E1980) on Day 2, using FuGENE HD transfection Reagenet (Promega E2311). After 24 h, 10 μM KY02111, 10 μM XAV939, or 10 μM IWP-2 was added to the medium, along with either 60 ng ml^−1 of mouse Wnt3a (Wako 232-02421) or 3 μM BIO. After 48 h of transfection (Day 4), luciferase activities were measured using a Dual-Luciferase Reporter 1000 Assay System kit (Promega E1980) and a 2030 ARVO X3 plate reader (PerkinElmer). Luciferase activities were normalized to the luminescence of the transfection control, Rennila luciferase, according to the kit protocol. For experiments using HEK293 cells, the cells were cultured in 10% FBS DMEM medium, and transfected with TOPflash and pRL-SV40 plasmid, using FuGENE HD. After 24 h, the transfected cells were seeded onto 96-well plates (10,000 cells well^−1) in medium containing 10 μM KY02111, 10 μM XAV939, or 10 μM IWP-2, along with 3 μM BIO or 60 ng ml^−1 mouse Wnt3a. Luciferase activities were measured 48 h after transfection by the procedure described above.

IMR90-1 hiPSCs = test: Cardiac differentiation with BIO and CHIR99021 (Days 0-3) followed by WNT inhibitors, serum-free or serum medium; type: cell-based, human
Procedure: After pre-culture in Petri dishes as described above, cell aggregates were attached to culture dishes coated with gelatin (Sigma G2625) or human laminin 211 (BioLamina, Sweden) at 3-10×10^5 cells cm^-2, in serum-free cardiac differentiation medium: IMDM (Sigma) containing 1% MEM non-essential amino acid solution (Sigma), 1% Penicillin-Streptomycin (Gibco), 2 mM L-glutamine (Sigma), 0.5 mM L-carnitine (Sigma), 0.001% 2-Mercapcoethanol (Gibco), and 1-2% bovine serum albumin (Wako, Japan) or 0.4% human serum albumin (Sigma), with 5 μM CHIR99021 (Axon) and 2 μM BIO (Calbiochem). On Days 3-9, 10 μM KY02111 and/or other WNT inhibitors (XAV939 and/or IWP-2) were added to cell cultures, and the medium was changed every 2 d. On Day 15, the cardiac colonies were incubated with the protease solution for 5-10 min, until all colonies were detached from the bottom of the wells. The cardiac colonies were transferred into 15 ml tubes with cardiac differentiation medium including 0.1% albumin, and precipitated by gravity, the supernatant was removed, and the cardiac colonies were transferred to Ultra-low culture 6-well plates (Corning, YO-01835-24) with cardiac differentiation medium including 0.1% albumin. The floating cardiac colonies were maintained for more than 1 month, and the media were changed every 5 d. Cardiac colonies were dissociated by stirring for 1-2 h at 37° C. with the protease solution described above, cultured for 1 d on cover glasses coated with gelatin (Sigma), and fixed with 4% paraformaldehyde. After permeabilizing with Triton X, the cells were treated with 2% skim milk for 1-2 h, then incubated with primary antibodies for 2 h: NKX2.5 (rabbit polyclonal, 1:250; Abcam), αActinin (mouse monoclonal, 1:800; Sigma), cardiac TnT (mouse monoclonal, 1:100; Santa Cruz Biotechnology), Vimentin (mouse monoclonal, 1:800; Sigma V6630), and HCN4 (mouse monoclonal, 1:400; Abcam). The secondary antibodies used were Alexa546-conjugated anti-mouse IgG, Alexa488-conjugated anti-mouse IgG, and Alexa488-conjugated anti-rabbit IgG (1:1000; all from Molecular Probes, Invitrogen). Nuclei were visualized by DAPI. Images were captured under fluorescent microscopy (Olympus). The number of cTnT, αActinin, NKX2.5, HCN4, and Vimentin-positive cells were counted from three random areas, using the Metamorph imaging system (Molecular Devices). Approximately 1000 DAPI-stained cells were used to calculate the proportion of immunopositive cells (the number of immunopositive cells divided by the number of DAPI-stained cells). […] Cells were analyzed using a FACS CantoII flow cytometer (BD Biosciences). Data was analyzed using […] software (BD Biosciences).

COc1ccc(CCC(=O)Nc2nc3ccc(Cl)cc3s2)cc1OC [KY02111, 2-(3-(3,4-dimethoxyphenyl)propanamide)-6-chlorobenzothiazole]
TCF promoter activity by Wnt3a ([1]; with 60 ng/ml Wnt3a): enhanced luciferase activity; also recorded: further augmented | TCF promoter activity by BIO ([1]; with 3 μM BIO): cancelled WNT activation by BIO; also recorded: inhibited | number of beating colonies and total number of cardiomyocytes, defined medium (Alb) versus serum-containing medium (FBS) (IMR90-1 hiPSCs; FIG. 4e): increased more in defined medium (Alb) | proportion of cTnT-positive cells by immunostaining (IMR90-1 hiPSCs; albumin (serum-free)): 93.3%±4.4 | differentiation efficiency (cTnT-positive cells) by FACS (IMR90-1 hiPSCs; cytokine- and serum-free conditions): 90.2% | differentiation efficiency (cTnT-positive cells) (IMR90-1 hiPSCs; with serum (FBS)): 83.7%±8.0
